According to patent US20240270715A1, “INHIBITORS OF TRANSGLUTAMINASES” (ZEDIRA GMBH, priority 2021, published 2024):

Assays:
[1] = Log D by shake flask method (octanol / PBS pH 7.4, HPLC); type: physicochemical; conditions: octanol / PBS pH 7.4, shake flask; read-out: logD
Experimental: In order to classify the inventive compounds according to their lipophilicity, Log D values (distribution coefficient) were determined by means of the well-established shake flask method, measuring the partition of a compound between an octanol and phosphate-buffered saline (PBS, pH 7.4) by HPLC.
Compounds with a moderate lipophilicity (Log D values from 0 to 3) are usually advantaged for oral absorption, being in balance between solubility and permeability. However, sophisticated formulation of a compound might improve oral bioavailability for highly lipophilic compounds.

[2] = Caco-2 permeability assay (CacoReady kit); type: in vitro ADME; conditions: human
Experimental: Permeability coefficients (Papp values) were obtained from Caco-2 barrier studies predicting oral/intestinal bioavailability of the tested compounds. The assays were performed by using CacoReady™ ready-to-use kits from ReadyCell according to the manufacturers protocol.

[3] = biological target: T1, recombinant human transglutaminase 2 (Homo sapiens, UniProt P21980); experiment: Transglutaminase assay: incorporation of dansylcadaverine into dimethylcasein (DCC-assay); type: biochemical; conditions: recombinant human TG2 10 nM, dansylcadaverine/dimethylcasein; read-out: IC50 TG2
T1 sequence (P21980 1-687): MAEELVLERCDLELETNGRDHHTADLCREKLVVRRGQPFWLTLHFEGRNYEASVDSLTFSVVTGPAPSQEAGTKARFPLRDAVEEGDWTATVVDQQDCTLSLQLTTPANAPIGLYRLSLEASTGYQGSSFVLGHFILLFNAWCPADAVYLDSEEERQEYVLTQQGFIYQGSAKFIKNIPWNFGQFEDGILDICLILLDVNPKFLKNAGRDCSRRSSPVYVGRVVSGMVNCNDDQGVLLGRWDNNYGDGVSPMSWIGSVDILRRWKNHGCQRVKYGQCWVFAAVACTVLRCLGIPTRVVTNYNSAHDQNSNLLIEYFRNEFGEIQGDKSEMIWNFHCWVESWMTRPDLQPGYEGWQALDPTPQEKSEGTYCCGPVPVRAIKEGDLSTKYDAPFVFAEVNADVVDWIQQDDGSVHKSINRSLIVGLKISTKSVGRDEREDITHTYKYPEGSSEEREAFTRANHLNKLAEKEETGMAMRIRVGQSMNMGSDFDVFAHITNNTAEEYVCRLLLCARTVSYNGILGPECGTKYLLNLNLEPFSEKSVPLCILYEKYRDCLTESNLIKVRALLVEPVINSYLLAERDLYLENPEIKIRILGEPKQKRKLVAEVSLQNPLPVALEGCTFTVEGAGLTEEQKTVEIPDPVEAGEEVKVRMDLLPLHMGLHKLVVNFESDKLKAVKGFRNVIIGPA
Experimental: To illustrate the advantage of branched alkyl moieties over aromatic moieties, we refer to reference compounds Ref. 2 (ZED1227, U.S. Pat. No. 9,434,763 B2) and Ref. 3 (A8, ZED1047). Inhibition data were determined using the classical fluorescent transamidation assay (dansylcadaverine incorporation into methylated casein, DCC-assay) as described [Büchold, C.; Hils, M.; Gerlach, U.; Weber, J.; Pelzer, C.; Heil, A.; Aeschlimann, D.; Pasternack, R. Features of ZED1227: The First-In-Class Tissue Transglutaminase Inhibitor Undergoing Clinical Evaluation for the Treatment of Celiac Disease. Cells 2022, 11, 1667. https://doi.org/10.3390/cells11101667]. Casein is one of the best known high molecular weight (24 kDa) protein substrates for transglutaminases. Please note, the IC50 value of Ref. 3 (A8) published in U.S. Pat. No. 9,434,763 B2 cannot be compared to the present data, relying on a fluorogenic isopeptidase assay.
To this extent, inhibition data were determined using the classical fluorescent transamidation assay (dansylcadaverine incorporation into methylated casein, DCC-assay) as described in Büchold et al. [Büchold, C.; Hils, M.; Gerlach, U.; Weber, J.; Pelzer, C.; Heil, A.; Aeschlimann, D.; Pasternack, R. Features of ZED1227: The First-In-Class Tissue Transglutaminase Inhibitor Undergoing Clinical Evaluation for the Treatment of Celiac Disease. Cells 2022, 11, 1667. https://doi.org/10.3390/cells11101667]. Casein is one of the best known high molecular weight (24 kDa) protein substrates for transglutaminases. Inhibition data of the inventive compounds was compared with inhibition of compounds disclosed in U.S. Pat. No. 9,434,763 B2, particularly, compound A8, which is denoted herein as Reference 3. It is noteworthy that the IC50 values of compounds A8 published in U.S. Pat. No. 9,434,763 B2 and E16 from U.S. Pat. No. 11,072,634 B2 cannot be compared to the present data, relying on a fluorogenic isopeptidase assay.
For the determination of potency of inhibitors against tissue transglutaminase, the incorporation of dansylcadaverine into dimethylcasein (Zedira product T036, Lorand et al., Anal Biochem, 1971, 44:221-31) was measured using recombinant human transglutaminase 2 (Zedira Product T022).
The tissue transglutaminase is diluted in buffer (50 mM Tris-HCl, 7.5 mM CaCl2, 150 mM NaCl, pH=7.4). The final concentration of TG2 in the assay is 10 nM.
A 10 mM inhibitor stock solution is prepared in DMSO, and from this a serial 1:2-fold dilution series is prepared also in DMSO. Each of the initial dilutions is subsequently diluted 1:50-fold with buffer (50 mM Tris-HCl, 7.5 mM CaCl2, 150 mM NaCl, pH=7.4) to yield the final working dilutions containing 2% (v/v) DMSO. 15 μl of inhibitor working dilution are added per well of a 96 well microtiter plate. As control, 15 μl of a 2% (v/v) DMSO solution prepared using the buffer mentioned above are added per well.
Immediately before starting the assay, 600 μl transglutaminase working solution are added to 11.4 ml assay buffer (50 mM Tris-HCl, 10 mM CaCl2, 10 mM glutathione, 2.5% glycerol, 16.7 μM dansylcadaverine, 4 μM N,N-dimethylcasein, 200 mM NaCl, pH=8.0). 285 μl of this reaction mix are added per well containing the inhibitor.
Increase in fluorescence is measured using λex=330 nm and λemG=500 nm at […] for 30 min. A slope of the increase in fluorescence between 20 and 30 min is calculated for determination of the IC50 value (inhibitor concentration at which 50% of the initial activity is blocked).
Analysis of enzymatic activity is performed by calculation of the slope of an increase in fluorescence intensity. IC50 values are calculated by plotting the enzymatic activity (as percentage from control containing 2% DMSO instead of inhibitor) against the inhibitor concentration. IC50 is defined as the inhibitor concentration blocking 50% of initial enzyme activity.

SMILES	logD [1]	Papp [2]	IC50 [3]
CCNC(=O)C(=O)CC[C@H](NC(=O)c1snnc1CO)C(=O)Nc1cccn(CC2C3CC4CC(C3)CC2C4)c1=O (stereo partly drawn) [Compound I-84, (S)-N1-(1-(2-adamantylmethyl)-2-oxo-1,2-dihydropyridin-3-yl)-N6-ethyl-2-(4-(hydroxymethyl)-1,2,3-thiadiazole-5-carboxamido)-5-oxohexanediamide]	1 to 3	< 1 ×10⁻⁶ cm/s	150 to 600 nM
CCNC(=O)C(=O)CC[C@H](NC(=O)c1cc2c(F)c(F)ccc2[nH]1)C(=O)Nc1cccn(CC(=O)NC2C3CC4CC(C3)CC2C4)c1=O (stereo partly drawn) [Compound I-36, (S)-2-(4,5-difluoro-1H-indole-2-carboxamido)-N6-ethyl-N1-(1-(2-(2-adamantylamino)-2-oxoethyl)-2-oxo-1,2-dihydropyridin-3-yl)-5-oxohexanediamide]	3 to 5	1 to 10 ×10⁻⁶ cm/s	< 150 nM
CCNC(=O)C(=O)CC[C@H](NC(=O)[C@@H]1CCCNC1)C(=O)Nc1cccn(CC(=O)NC2C3CC4CC2CC(Br)(C4)C3)c1=O (stereo partly drawn) [Compound I-61, (S)-N1-ethyl-N6-(1-(2-(5-bromoadamantane-2-amino)-2-oxoethyl)-2-oxo-1,2-dihydropyridin-3-yl)-2-oxo-5-((R)-piperidine-3-carboxamido)hexanediamide]	1 to 3	< 1 ×10⁻⁶ cm/s	150 to 600 nM
CCNC(=O)C(=O)CC[C@H](NC(=O)c1cn(C)cn1)C(=O)Nc1cccn(CC(=O)NC23CC4CC(C)(CC(C)(C4)C2)C3)c1=O [Compound I-22, (S)-N1-ethyl-N6-(1-(2-(3,5-dimethyladamantane-1-amino)-2-oxoethyl)-2-oxo-1,2-dihydropyridin-3-yl)-5-(1-methyl-1H-imidazole-4-carboxamido)-2-oxohexanediamide]	1 to 3	< 1 ×10⁻⁶ cm/s	600 to 3500 nM
CCNC(=O)C(=O)CC[C@H](NC(=O)c1cncn1C)C(=O)Nc1cccn(CC(=O)NC[C@@H]2CC[C@H]3C[C@@H]2C3(C)C)c1=O [Compound I-13, (S)-N1-(1-(2-(((1S,2R,5S)-6,6-dimethylbicyclo[3.1.1]heptan-2-yl)methylamino)-2-oxoethyl)-2-oxo-1,2-dihydropyridin-3-yl)-N6-ethyl-2-(1-methyl-1H-imidazole-5-carboxamido)-5-oxohexanediamide]	1 to 3	< 1 ×10⁻⁶ cm/s	600 to 3500 nM
CCNC(=O)C(=O)CC[C@H](NC(=O)c1cnc(NC(C)=O)s1)C(=O)Nc1cccn(CC(=O)NC23CC(C2)C3)c1=O [Compound I-110, (S)-2-(2-acetamidothiazole-5-carboxamido)-N1-(1-(2-(bicyclo[1.1.1]pentan-1-ylamino)-2-oxoethyl)-2-oxo-1,2-dihydropyridin-3-yl)-N6-ethyl-5-oxohexanediamide]	< 1	< 1 ×10⁻⁶ cm/s	600 to 3500 nM
CCNC(=O)C(=O)CC[C@H](NC(=O)c1cncn1C)C(=O)Nc1cccn(CC(=O)NC23CC4CC(CC(C)(C4)C2)C3)c1=O [Compound I-25, (S)-N1-ethyl-N6-(1-(2-(3-methyladamantane-1-amino)-2-oxoethyl)-2-oxo-1,2-dihydropyridin-3-yl)-5-(1-methyl-1H-imidazole-5-carboxamido)-2-oxohexanediamide]	1 to 3	< 1 ×10⁻⁶ cm/s	150 to 600 nM
CCNC(=O)C(=O)CC[C@H](NC(=O)c1ncn(C)n1)C(=O)Nc1cccn(CC(=O)N[C@@H]2C[C@@H]3C[C@H]([C@H]2C)C3(C)C)c1=O [Compound I-76, (S)-N1-ethyl-5-(1-methyl-1H-1,2,4-triazole-3-carboxamido)-2-oxo-N6-(2-oxo-1-(2-oxo-2-((1R,2R,3R,5S)-2,6,6-trimethylbicyclo[3.1.1]heptan-3-ylamino)ethyl)-1,2-dihydropyridin-3-yl)hexanediamide]	1 to 3	< 1 ×10⁻⁶ cm/s	150 to 600 nM

The next lines start with the values.

logD [1]	Papp [2]	IC50 [3]	SMILES
< 1	< 1 ×10⁻⁶ cm/s	600 to 3500 nM	CCNC(=O)C(=O)CC[C@H](NC(=O)c1cncn1C)C(=O)Nc1cccn(CC(=O)NC23CC4CC(CC(C4)C2)C3)c1=O [Compound I-1, (S)-N1-ethyl-N6-(1-(2-(1-adamantylamino)-2-oxoethyl)-2-oxo-1,2-dihydropyridin-3-yl)-5-(1-methyl-1H-imidazole-5-carboxamido)-2-oxohexanediamide]
< 1	< 1 ×10⁻⁶ cm/s	600 to 3500 nM	CCNC(=O)C(=O)CC[C@H](NC(=O)c1c[nH]cn1)C(=O)Nc1cccn(CC(=O)NC23CC4CC(CC(C4)C2)C3)c1=O [Compound I-2, (S)-N1-ethyl-5-(1H-imidazole-4-carboxamido)-N6-(1-(2-(1-adamantylamino)-2-oxoethyl)-2-oxo-1,2-dihydropyridin-3-yl)-2-oxohexanediamide]
3 to 5	1 to 10 ×10⁻⁶ cm/s	< 150 nM	CCNC(=O)C(=O)CC[C@H](NC(=O)c1[nH]c2ccccc2c1C)C(=O)Nc1cccn(CC(=O)NC2C3CC4CC(C3)CC2C4)c1=O (stereo partly drawn) [Compound I-37, (S)-N1-ethyl-N6-(1-(2-(2-adamantylamino)-2-oxoethyl)-2-oxo-1,2-dihydropyridin-3-yl)-5-(3-methyl-1H-indole-2-carboxamido)-2-oxohexanediamide]
3 to 5	1 to 10 ×10⁻⁶ cm/s	150 to 600 nM	CCNC(=O)C(=O)CC[C@H](NC(=O)c1csc2ccccc12)C(=O)Nc1cccn(CC(=O)NC23CCCC4CC(CCC42)C3)c1=O (stereo partly drawn) [Compound I-78, (S)-2-(benzo[b]thiophene-3-carboxamido)-N6-ethyl-N1-(1-(2-(4-homoisotwistane-3-amino)-2-oxoethyl)-2-oxo-1,2-dihydropyridin-3-yl)-5-oxohexanediamide]
